Earlier results in paper PMC3226709 (Journal of the American Chemical Society, 2011).
pIC50: −log10 of the molar value.

Test system: GSTO1
Conditions: read-out: IC50 for GSTO1 inhibition

pIC50: 7.29
SMILES: CC(=O)Oc1ccc2c(c1)Oc1cc(OC(C)=O)ccc1C21OC(=O)c2cc(CCl)ccc21 [CellTracker Green, 5-chloromethylfluorescein diacetate]
